These are literature values, as cited in patent publication US12653950B2, “Predictive biological homeostasis” (priority 2020, dated 2026).

The conditions of data set [1]: in vivo.
The subject of data set [2] is NF-κB. As to conditions: pro-inflammatory signaling pathway involved in Lyme-induced inflammation.
Assay in data set [3]: not given
The source holds these as a separate data set.

For data set [4], the system named is Borrelia burgdorferi. As to conditions: one animal study (Pothineni et al. 2020).

As for `Nc1nc2c(ncn2COCCO)c(=O)[nH]1` [Acyclovir], the “toxic side effects in the kidneys” value in data set [1] is “toxic side effects in the kidneys”.
Turning to `COc1cc(/C=C/C(=O)CC(=O)/C=C/c2ccc(O)c(OC)c2)ccc1O` [Curcumin], the “activation of NF-κB” value in data set [2] is “blocking the activation”.
On to `O=c1c(O)c(-c2ccc(O)c(O)c2)oc2cc(O)cc(O)c12` [Quercetin], for which the “stability in physiological systems” value is “unstable”. In data set [3], the solubility in water entry was “poorly soluble”.
For the molecule `CC1(C)S[C@@H]2[C@H](NC(=O)[C@H](NC(=O)N3CCNC3=O)c3ccccc3)C(=O)N2[C@H]1C(=O)O` [azlocillin], the “killing of disease-causing bacteria Borrelia burgdorferi” value in data set [4] is recorded as “completely kills off”.
